Several values for one entry are separate records, joined by “and”; a condition that tells them apart may be missing. Equal entries are not always repeated. Where two headings read alike, the source gives them in different places.
How the values were obtained:
[1] = set-up: method as in PMID 31832335, PMID 16243424, PMID 24980540, PMID 36297576, doi:10.1016/j.arabjc.2009.12.008; details: at similar concentration; cited from earlier work
[2] = cited from earlier work; for DPPH radical scavenging IC50: previous reports; for median inhibitory concentration (IC50): DPPH tests in a different investigation
AChE = details: cited from earlier work; for Ki: read-out: Ki towards AChE
[3] = set-up: method as in PMID 31832335, PMID 16243424, PMID 36297576, doi:10.1016/j.fbio.2022.101557, PMID 37693735; details: other existing studies; cited from earlier work
[4] = cited from earlier work
[5] = set-up: method as in PMID 31832335, PMID 36144638, PMID 37693735, PMID 21554120, PMID 36297576; details: at the same concentration; cited from earlier work
hCA II isoenzyme = biological target: T1, hCA II isoenzyme (Homo sapiens, UniProt P00918); experiment: Human carbonic anhydrase II inhibition (esterase activity); assay type: biochemical
T1 construct: hCA II isoenzyme was purified from fresh human erythrocytes; from tissue
Description: hCA II isoenzyme was purified from fresh human erythrocytes. The erythrocytes were spun at 10,000× g for 30 min. The serum was then separated, and the pH was adjusted to 8.7 using solid Tris. Sepharose-4B-L-Tirozyne sulfanilamide affinity column chromatography was used to purify the CA II isoenzyme. […] Sodium acetate/NaClO4 (0.5 M, pH 5.6, 25 °C) was then used to elute the hCA II isozyme. The Bradford technique was used to measure the protein quantity throughout the purification process. Bovine serum albumin was employed as a reference protein. SDS-PAGE was used to monitor the purity of the hCA II isoform. Esterase activity was performed throughout hCA II’s purification and inhibition processes.
(§1) The IC50 values were determined using plots of activity (%) versus baicalin hydrate. Ki values and other inhibition factors were determined using Lineweaver–Burk graphs.

[6] = biological target: T2, acetylcholinesterase (AChE) (Electrophorus electricus, UniProt O42275); experiment: Acetylcholinesterase inhibition (Ellman); assay type: biochemical, electric eel (Electrophorus electricus)
T2 construct: AChE was obtained from electric eel (Electrophorus electricus); from tissue
T2 sequence (O42275 24-633): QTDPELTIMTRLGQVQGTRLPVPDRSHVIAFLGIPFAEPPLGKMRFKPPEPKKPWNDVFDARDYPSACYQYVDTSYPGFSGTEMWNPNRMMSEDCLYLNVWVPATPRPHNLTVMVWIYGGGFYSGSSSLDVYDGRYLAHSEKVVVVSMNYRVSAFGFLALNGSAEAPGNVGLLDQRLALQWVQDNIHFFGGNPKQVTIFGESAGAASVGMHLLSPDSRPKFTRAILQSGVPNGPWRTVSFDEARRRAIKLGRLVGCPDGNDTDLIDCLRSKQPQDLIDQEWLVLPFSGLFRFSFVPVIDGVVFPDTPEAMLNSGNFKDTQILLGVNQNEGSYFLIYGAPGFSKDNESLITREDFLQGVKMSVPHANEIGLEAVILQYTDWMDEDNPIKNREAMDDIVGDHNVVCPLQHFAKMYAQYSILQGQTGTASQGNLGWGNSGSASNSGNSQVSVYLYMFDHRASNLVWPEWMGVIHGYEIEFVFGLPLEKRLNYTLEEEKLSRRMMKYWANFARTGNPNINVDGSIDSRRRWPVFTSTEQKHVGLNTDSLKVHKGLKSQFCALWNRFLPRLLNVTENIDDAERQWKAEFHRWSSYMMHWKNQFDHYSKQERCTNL

α-glycosidase = experiment: α-Glycosidase inhibition (p-NPG substrate); assay type: biochemical, Saccharomyces cerevisiae
Description: The inhibition effects of baicalin hydrate on α-glycosidase (from Saccharomyces cerevisiae) were assessed according to the procedure outlined by Tao et al.. p-Nitrophenyl-D-glucopyranoside (p-NPG) was used as a substrate for α-glycosidase. Briefly, 75 μL phosphate buffer (pH 7.4) was mixed with 5 μL of the sample and 20 μL α-glycosidase enzyme solution in a phosphate buffer (0.15 U/mL, pH 7.4). After preincubation, 50 μL of p-nitrophenyl-D-glycopyranoside (p-NPG) in a phosphate buffer (5 mM, pH 7.4) was transferred, and the solution was incubated at 37 °C. The absorbance of the samples was measured at 405 nm. The amount of enzyme that catalyzed […] of substrate per minute (pH 7.4) was one α-glycosidase unit.
as §1

ABTS radical scavenging = experiment: ABTS radical scavenging
Description: ABTS^•+ scavenging capacity of baicalin hydrate was measured according to a different work and was detected at 734 nm. ABTS^•+ was produced by the reaction of 2 mM ABTS in water with 2.45 mM potassium persulfate (K2S2O8), incubated in the dark at room temperature for five hours. Before usage, the ABTS^•+ solution was diluted to obtain an absorbance of 0.750 ± 0.025 at 734 nm with phosphate buffer (0.1 M, pH 7.4). Then, 1 mL of ABTS^•+ solution was added to 3 mL of baicalin hydrate in ethanol at different concentrations (10–30 µg/mL).
as §1

[7] = biological target: T3, butyrylcholinesterase (BChE) (Equus caballus, UniProt P81908); experiment: biochemical; set-up: species or system equine
T3 construct: BChE was purified from equine serum; from tissue; host or cells: equine serum
T3 sequence (P81908 whole entry): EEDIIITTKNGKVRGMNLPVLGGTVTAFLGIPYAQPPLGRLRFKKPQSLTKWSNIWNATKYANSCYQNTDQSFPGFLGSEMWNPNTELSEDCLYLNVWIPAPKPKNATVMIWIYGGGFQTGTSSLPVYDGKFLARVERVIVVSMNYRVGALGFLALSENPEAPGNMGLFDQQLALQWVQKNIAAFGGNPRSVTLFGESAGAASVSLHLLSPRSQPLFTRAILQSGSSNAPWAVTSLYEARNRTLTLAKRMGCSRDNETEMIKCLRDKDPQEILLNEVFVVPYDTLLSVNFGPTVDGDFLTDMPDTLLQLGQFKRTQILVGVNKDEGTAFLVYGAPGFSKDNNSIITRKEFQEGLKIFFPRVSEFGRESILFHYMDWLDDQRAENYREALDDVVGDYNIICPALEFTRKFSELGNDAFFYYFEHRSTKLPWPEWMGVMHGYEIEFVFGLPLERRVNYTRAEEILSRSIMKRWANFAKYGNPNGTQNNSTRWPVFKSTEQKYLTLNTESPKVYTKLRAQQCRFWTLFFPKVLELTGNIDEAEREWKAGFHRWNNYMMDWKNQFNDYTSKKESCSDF

DPPH radical scavenging = experiment: DPPH radical scavenging
Description: The Blois technique was used to test the DPPH^• scavenging capacity of baicalin hydrate. Briefly, 0.25 mL of different concentrations of baicalin hydrate in ethanol (10–30 μg/mL) and 0.25 mL of DPPH radical solution (0.3 mM) in ethanol were combined with 1 mL ethanol in test tubes. The mixture was then incubated at 37 °C for 30 min. The DPPH radical scavenging activities of baicalin hydrate were measured at 517 nm.
as §1

DMPD radical scavenging = experiment: DMPD radical scavenging
Description: Baicalin hydrate was evaluated for its capacity to remove DMPD^•+ using the Fogliano technique. For this purpose, 0.5 mL of FeCl3 (50 mM) and 1.5 mL of DMPD solution were added to the buffer solution (pH 5.3, 0.1 M). Then, this mixture was added to 1 mL of different concentrations (10–30 μg/mL) of baicalin hydrate. Then, the total volume was adjusted to 4 mL using deionized water. Finally, 1 mL of DMPD radicals were added, and their absorbances were recorded at 505 nm.
as §1

[8] = Fe3+ reducing ability (potassium ferricyanide reduction); details: at 30 μg/mL
Description: According to prior investigation, baicalin hydrate’s ability to reduce Fe^3+ was achieved. Also, according to previous works, the Fe^3+-reducing effect of baicalin hydrate was tested. Briefly, 0.75 mL of deionized water and different doses of baicalin hydrate (10–30 μg/mL) were combined with 1.25 mL sodium phosphate buffer (pH 6.6, 0.2 M) and 1.25 mL of K3[Fe(CN)6] (1%). After 30 min incubation at 30 °C, the reaction medium was acidified with 1 mL trichloroacetic acid (10%, TCA) and re-incubated in the dark for 30 min. Finally, 0.5 mL of FeCl3 (0.1%) was transferred to the solution. The absorbance values of baicalin hydrate and references were recorded at 700 nm. The increased absorbance of the reaction mixture reflects an increasing reduction ability.

[9] = Cu2+ reducing ability (cupric ions reducing); details: at 30 μg/mL
Description: The technique of Apak et al. was utilized to assess the cupric ions (Cu^2+) reducing capacity of baicalin hydrate. After carrying out the required experimental procedures, the absorbances were detected at 450 nm using a spectrophotometer (Shimadzu, UV-1280, Kyoto, Japan). To do so, 0.2 mL CuCl2 solution (10 mM), 200 µL neocuproine solution (7.5 mM), and 200 µL CH3COONa buffer solution (1.0 M) were added to a test tube. The solution was mixed with different concentrations of baicalin hydrate (10–30 μg/mL). The total volume then reduced to 1.5 mL by adding distilled water and stored at room temperature. After 30 min incubation, the absorbances of the samples were measured at 450 nm. The increased absorbance of the reaction reflects increased reduction capacity.

O=C(O)/C=C/c1ccc(O)c(O)c1 [caffeic acid]
Fe^3+ reducing absorbance [1]: 2.769

O=C(O)[C@H]1O[C@@H](Oc2cc3oc(-c4ccccc4)cc(=O)c3c(O)c2O)[C@H](O)[C@@H](O)[C@@H]1O [baicalin]
IC50 ([2]; read-out: DPPH radical IC50): 64.9 µM
IC50 (AChE; a different study, read-out: 50% inhibition of AChE activity (IC50)): 124 µM

O=C(/C=C/c1ccc(O)c(O)c1)OCCc1ccccc1 [CAPE, caffeic acid phenethyl ester]
DMPD•+ scavenging IC50 [3]: 26.70 µg/mL
DPPH radical scavenging IC50 [2]: 3.30 µg/mL
Fe^3+ reducing absorbance [1]: 2.509
ABTS•+ scavenging IC50 [4]: 9.80 µg/mL

CC(=O)c1c(O)c(C)c(O)c2c1OC1=CC(=O)C(C(C)=O)C(=O)C12C (centres unmarked) [usnic acid]
DMPD•+ scavenging IC50 [3]: 33.00 µg/mL
DPPH radical scavenging IC50 [2]: 49.50 µg/mL
Fe^3+ reducing absorbance [1]: 0.278
Cu^2+ reduction absorbance [5]: 0.277
ABTS•+ scavenging IC50 [4]: 10.4 µg/mL

O=C(O)[C@H]1O[C@@H](Oc2cc3oc(-c4ccccc4)cc(=O)c3c(O)c2O)[C@H](O)[C@@H](O)[C@@H]1O [Baicalin hydrate, baicalin hydrate]
IC50 (hCA II isoenzyme): 31.1 nM
Ki (hCA II isoenzyme): 19.3 ± 1.79 nM
IC50 [6]: 14.7 nM
Ki [6]: 10 ± 2.86 nM
Selectivity index (Ki for AChE/Ki BChE) [6]: 2.86
median inhibitory concentration (IC50) [2]: 17.0 µg/mL
IC50 (α-glycosidase): 24.6 nM
Ki (α-glycosidase; n: 3, Lineweaver–Burk, read-out: Ki α-Gly): 27 ± 9.91 nM
ABTS•+ scavenging IC50 (ABTS radical scavenging): 38.37 µg/mL
IC50 [7]: 12.3 nM
Ki ([7]; n: 3, Lineweaver–Burk): 3.5 ± 0.68 nM
DPPH• scavenging IC50 (DPPH radical scavenging): 13.40 µg/mL
DMPD•+ scavenging IC50 (DMPD radical scavenging): 90.91 µg/mL
Fe^3+ reducing, absorbance λ (700 nm) [8]: 1.249
Fe^3+ reducing, absorbance λ (700 nm) ([8]; listed as baicalin hydrate): 1.249 ± 0.014
Cu^2+ reducing, absorbance λ (450 nm) [9]: 0.344
Cu^2+ reducing, absorbance λ (450 nm) ([9]; listed as baicalin hydrate): 0.344 ± 0.033

COc1ccc(O)c(C(C)(C)C)c1 [BHA, butylated hydroxyanisole]
ABTS•+ scavenging IC50 (ABTS radical scavenging): 5.07 µg/mL
DPPH• scavenging IC50 (DPPH radical scavenging): 10.10 µg/mL
DMPD•+ scavenging IC50 (DMPD radical scavenging): 11.99 µg/mL
Fe^3+ reducing, absorbance λ (700 nm) [8]: 2.347 ± 0.046 and 2.347
Cu^2+ reducing, absorbance λ (450 nm) [9]: 2.216 ± 0.059 and 2.216

Cc1cc(C(C)(C)C)c(O)c(C(C)(C)C)c1 [BHT, butylated hydroxytoluene]
median inhibitory concentration (IC50) [2]: 21.7 µg/mL
ABTS•+ scavenging IC50 (ABTS radical scavenging): 6.99 µg/mL
DPPH• scavenging IC50 (DPPH radical scavenging): 25.95 µg/mL
DMPD•+ scavenging IC50 (DMPD radical scavenging): 8.72 µg/mL
Fe^3+ reducing, absorbance λ (700 nm) [8]: 0.952 ± 0.023 and 0.952
Cu^2+ reducing, absorbance λ (450 nm) [9]: 2.044 ± 0.041 and 2.044

Cc1c(C)c2c(c(C)c1O)CC[C@@](C)(CCC[C@H](C)CCC[C@H](C)CCCC(C)C)O2 [α-Tocopherol]
ABTS•+ scavenging IC50 (ABTS radical scavenging): 8.37 µg/mL
DPPH• scavenging IC50 (DPPH radical scavenging): 11.31 µg/mL
DMPD•+ scavenging IC50 (DMPD radical scavenging): 7.11 µg/mL
Fe^3+ reducing, absorbance λ (700 nm) [8]: 0.957 ± 0.018 and 0.957
Cu^2+ reducing, absorbance λ (450 nm) [9]: 0.816 ± 0.041 and 0.816

O=c1[nH]c(=O)c2[nH]c(=O)[nH]c2[nH]1 [uric acid]
Fe^3+ reducing absorbance [1]: 0.432

O=c1c(O)c(-c2ccc(O[C@@H]3O[C@H](CO)[C@@H](O)[C@H](O)[C@H]3O)c(O)c2)oc2cc(O)cc(O)c12 [spiraeoside]
DMPD•+ scavenging IC50 [3]: 8.15 µg/mL
DPPH radical scavenging IC50 [2]: 28.51 µg/mL
Ki (AChE): 3.4 nM
Fe^3+ reducing absorbance [1]: 1.012
Cu^2+ reduction absorbance [5]: 0.519
ABTS•+ scavenging IC50 [4]: 7.48 µg/mL

L-Adrenaline [reference compound]
DMPD•+ scavenging IC50 [3]: 15.6 µg/mL
DPPH radical scavenging IC50 [2]: 30.6 µg/mL
ABTS•+ scavenging IC50 [4]: 6.93 µg/mL

O=C1c2c(O)cc(O)cc2OC(c2ccc(O)c(O)c2)C1O (centres unmarked) [taxifolin]
DMPD•+ scavenging IC50 [3]: 173.25 µg/mL
DPPH radical scavenging IC50 [2]: 77.00 µg/mL
Ki (AChE): 16.7 nM
Cu^2+ reduction absorbance [5]: 0.750
ABTS•+ scavenging IC50 [4]: 0.83 µg/mL

O=C1O[C@H]([C@@H](O)CO)C(O)=C1O [ascorbic acid, reference compound]
median inhibitory concentration (IC50) [2]: 19.6 µg/mL

O=c1oc2cc(O)ccc2c2oc3cc(O)ccc3c12 [coumestrol]
DMPD•+ scavenging IC50 [3]: 12.81 µg/mL
DPPH radical scavenging IC50 [2]: 25.95 µg/mL
Ki (AChE): 21.4 nM
Fe^3+ reducing absorbance [1]: 0.739
Cu^2+ reduction absorbance [5]: 0.780
ABTS•+ scavenging IC50 [4]: 12.24 µg/mL

tannic acid
Fe^3+ reducing absorbance [1]: 2.428

C=CCc1ccc(O)c(OC)c1 [eugenol]
DMPD•+ scavenging IC50 [3]: 10.04 µg/mL
DPPH radical scavenging IC50 [2]: 16.06 µg/mL
Cu^2+ reduction absorbance [5]: 0.762
ABTS•+ scavenging IC50 [4]: 7.84 µg/mL

Cc1c(C)c2c(c(C)c1O)CCC(C)(C(=O)O)O2 (centres unmarked) [Trolox]
ABTS•+ scavenging IC50 (ABTS radical scavenging): 6.16 µg/mL
DPPH• scavenging IC50 (DPPH radical scavenging): 7.059 µg/mL
DMPD•+ scavenging IC50 (DMPD radical scavenging): 4.33 µg/mL
Fe^3+ reducing, absorbance λ (700 nm) [8]: 2.119 ± 0.001 and 2.119
Cu^2+ reducing, absorbance λ (450 nm) [9]: 1.548 ± 0.024 and 1.548

COc1ccc2c(c1O)-c1c(O)c(OC)cc3c1[C@H](C2)[N+](C)(C)CC3 [magnofluorine]
DMPD•+ scavenging IC50 [3]: 15.16 µg/mL
DPPH radical scavenging IC50 [2]: 10.58 µg/mL
Fe^3+ reducing absorbance [1]: 0.967
Cu^2+ reduction absorbance [5]: 0.468
ABTS•+ scavenging IC50 [4]: 27.61 µg/mL

CCCCCc1cc(O)cc(O)c1 [olivetol]
DMPD•+ scavenging IC50 [3]: 19.25 µg/mL
DPPH radical scavenging IC50 [2]: 17.77 µg/mL
Cu^2+ reduction absorbance [5]: 1.314
ABTS•+ scavenging IC50 [4]: 1.94 µg/mL

Reference: publication PMC10672269, “Evaluation of Carbonic Anhydrase, Acetylcholinesterase, Butyrylcholinesterase, and α-Glycosidase Inhibition Effects and Antioxidant Activity of Baicalin Hydrate” (Life, 2023)
